Measured values as given in US9670204B2, “Compounds and pharmaceutical compositions thereof for the treatment of inflammatory disorders” (Galapagos NV, priority 2013, dated 2017).

What was measured:
LPA 18:2 in human plasma = assay: Human whole blood (plasma) LPA assay; type: biochemical; settings: 2 h at 37 C, LPA 18:2 by LC-MS/MS
Protocol: Blood is collected from healthy volunteers who gave informed consent into sodium heparin tubes by venipuncture, then gently inverted several times to prevent clotting. Tubes are centrifuged at 3000 rpm for 15 min at 4° C. then plasma is stored at −80° C. Compounds are diluted in DMSO in concentration dependent manner then 0.5 μL are dispensed into 96-well plate placed in ice. Plasma is defrosted on ice then 49.5 μL of plasma are added into the well containing 0.5 μL of compound (1% DMSO final). Plates are covered with a lid in polypropylene and incubated at +37° C., 5% CO2, for 2 h under gentle shaking (except controls which are stored at −20° C.).
At the end of the incubation, controls are defrosted in ice and transferred in the incubated plates for LC-MS/MS analysis with a non GLP-validated method. For the analysis, plasma proteins from a 10 μL incubated plates are precipitated with an excess of methanol containing the internal standard, LPA 17:0. After centrifugation, the corresponding supernatant is injected on a C18 column. Analytes are eluted out of the column under isocratic conditions. An API5500 QTRAP mass spectrometer (ABSciex™) is used for the detection of LPA 18:2. No calibration curve is prepared for LPA 18:2, however relative quantities are evaluated based on the peak area.

LPA 18:2 in rat plasma = assay: Rat whole blood (plasma) LPA assay; type: biochemical; settings: 2 h at 37 C, LPA 18:2 by LC-MS/MS
How it was run: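 Heparinised rat plasma spiked with compound (1% DMSO final), incubated 2 h at 37 °C, 5% CO2 with shaking; controls kept at −20 °C. After methanol precipitation with LPA 17:0 internal standard, LPA 18:2 measured by LC-MS/MS (C18, isocratic), relative quantities from peak area without calibration.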

[1] = test system: TS-induced pulmonary inflammation, cells in BALF; assay: Tobacco smoke (TS) model, lungs inflammatory cells recruitment; type: in vivo, female C57BL/6J mice; settings: days 6 to 11, TS-exposed mice
Protocol: The aim of this experiment is to evaluate the efficacy and potency of a test compound administered p.o., once or twice daily on days 6 to 11, vs reference compounds, on pulmonary inflammation induced by 11 days of TS-exposure in female C57BL/6J mice, by assessing the effect of a test compound on the tobacco smoke induced recruitment of inflammatory cells to the lungs.
The test compounds are formulated in PEG200/0.5% methylcellulose (25/75, v/v) and are given at a dose volume of 10 mL/kg. Roflumilast and Dexamethasone are included as positive […] control, respectively. Each treatment group consists of 10 mice.
A first group of mice is subjected to daily TS-exposure for 5 consecutive days and sacrificed on the day 6, 24 h after the final TS-exposure.
A second group is exposed to air for 5 consecutive days (sham exposure) and sacrificed on the day 6, 24 h after the final air-exposure.
Compound and reference-treated groups are subjected to daily TS-exposure for 11 consecutive days and sacrificed on the day 12, 24 h after the final TS-exposure. Mice are dosed p.o. on days 6 to 11, twice daily, 1 h prior to and 6 h after each TS-exposure, with either vehicle, or the test compound at 3, 5, 10 or 30 mg/kg. Another group is dosed p.o. on days 6 to 11, once daily, 1 h prior to each TS-exposure, with either vehicle, or the test compound at 10 mg/kg.
An additional group is dosed p.o., once daily, on days 6 to 11, with roflumilast at 5 mg/kg, 1 h prior to each TS-exposure. Dexamethasone is dosed p.o., twice daily, on days 6 to 11, at 0.3 mg/kg, 1 h prior to and 6 h after each TS-exposure.
For each mouse, a BAL is performed using 0.4 mL of PBS. The lavage fluid is centrifuged, the supernatant removed and the resulting cell pellet re-suspended for total cell counts and cytospin slide preparation. […]
The lungs are dissected out and the left lobes are removed, snap-frozen and stored at −80° C. […] Cell data are presented as individual data points for each animal and the mean value calculated for each group. […]
Percentage inhibitions for the cell data are calculated using the formula below: […]

hENPP2 [2] = target: T1, hENPP2 (UniProtKB/SwissProt Q13822) (Homo sapiens (Human), UniProt Q13822); assay: fluorescent hENPP2 biochemical assay, FS-3 as substrate; settings: read-out: FS3-IC50
How it was run: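 hENPP2 in 50 mM Tris-HCl pH 8.0, 250 mM NaCl, 5 mM KCl, 1 mM MgCl2, 1 mM CaCl2, 0.1% fatty-acid-free BSA, preincubated with compound 30 min at room temperature. The 0.75 μM FS-3 solution was added and the mixture incubated 30 min at 30° C. Fluorescence (ex 485/em 520 nm) gives IC50.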

hENPP2 [3] = target: T1, hENPP2; assay: hENPP2 biochemical assay, LPC as substrate; settings: LPC (palmitoyl 16:0) as substrate
How it was run: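 Human ENPP2 in 50 mM Tris-HCl pH 8.5, 500 mM NaCl, 5 mM KCl, 10 mM CaCl2, 0.1% fatty-acid-free BSA, reacted 30 min at 37 °C with LPC 16:0 (150 µM solution added 1:1). Released choline measured via choline oxidase/peroxidase/TOOS/4-aminoantipyrine quinoneimine dye at 555 nm; IC50 reported.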

Row | Compound | IC50 (LPA 18:2 in human plasma) [nM] | IC50 (LPA 18:2 in rat plasma) [nM] | IC50 (hENPP2 [2]) [nM] | IC50 (hENPP2 [3]) [nM] | number of cells recovered in the BALF, in particular macrophage cells, epithelial cells, and neutrophils ([1]; 3 mg/kg twice daily p.o.) | number of cells recovered in the BALF, in particular macrophage cells, epithelial cells, and neutrophils ([1]; 10 mg/kg twice daily p.o.)
1 | CCc1nc2c(C)cc(N3CCN(CC(=O)N4CC(O)C4)CC3)cn2c1N(C)c1nc(-c2ccc(F)cc2)c(C#N)s1 [Compound 2, 2-((2-ethyl-6-(4-(2-(3-hydroxyazetidin-1-yl)-2-oxoethyl)piperazin-1-yl)-8-methylimidazo[1,2-a]pyridin-3-yl)(methyl)amino)-4-(4-fluorophenyl) thiazole-5-carbonitrile] | 100 to 500 | 500 to 1000 |  |  | significantly inhibited | significantly inhibited
2 | CCc1nc2c(F)cc(N3CCN(CC(=O)N4CC(O)C4)CC3)cn2c1N(C)c1nc(-c2ccc(F)cc2)c(C#N)s1 [Compound 12, 2-((2-ethyl-8-fluoro-6-(4-(2-(3-hydroxyazetidin-1-yl)-2-oxoethyl)piperazin-1-yl)imidazo[1,2-a]pyridin-3-yl)(methyl)amino)-4-(4-fluorophenyl)thiazole-5-carbonitrile] | 100 to 500 | 0.01 to 100 | 0.01 to 100 | 0.01 to 100 |  | significantly inhibited
3 | CCc1nc2c(F)cc(N3CCN(CC(=O)NC)CC3)cn2c1N(C)c1nc(-c2ccc(F)cc2)c(C#N)s1 [Compound 13, 2-(4-(3-((5-cyano-4-(4-fluorophenyl)thiazol-2-yl)(methyl)amino)-2-ethyl-8-fluoroimidazo[1,2-a]pyridin-6-yl)piperazin-1-yl)-N-methylacetamide] | 100 to 500 | 0.01 to 100 |  |  |  | 
4 | CCc1nc2ccc(C3CCN(S(C)(=O)=O)CC3)cn2c1N(C)c1nc(-c2ccc(F)cc2)cs1 [Compound 80, N-(2-ethyl-6-(1-(methylsulfonyl)piperidin-4-yl)imidazo[1,2-a]pyridin-3-yl)-4-(4-fluorophenyl)-N-methylthiazol-2-amine] | > 1000 | 500 to 1000 | 0.01 to 100 | 500 to 1000 |  | 
5 | CCc1nc2ccc(C3CCN(CC(=O)N4CC(O)C4)CC3)cn2c1N(C)c1nc(-c2ccc(F)cc2)cs1 [Compound 110, 2-(4-(2-ethyl-3-((4-(4-fluorophenyl)thiazol-2-yl)(methyl)amino)imidazo[1,2-a]pyridin-6-yl)piperidin-1-yl)-(3-hydroxyazetidin-1-yl)ethanone] | > 1000 | > 1000 | 0.01 to 100 | 100 to 500 |  | 

More lines, main results first:

Row | IC50 (LPA 18:2 in human plasma) [nM] | IC50 (LPA 18:2 in rat plasma) [nM] | IC50 (hENPP2 [2]) [nM] | IC50 (hENPP2 [3]) [nM] | Compound | number of cells recovered in the BALF, in particular macrophage cells, epithelial cells, and neutrophils ([1]; 3 mg/kg twice daily p.o.) | number of cells recovered in the BALF, in particular macrophage cells, epithelial cells, and neutrophils ([1]; 10 mg/kg twice daily p.o.)
6 |  | > 1000 | 0.01 to 100 | > 1000 | CCc1nc2ccc(N3CCN(C(=O)[C@H](C)O)CC3)cn2c1N(C)c1nc(-c2ccc(F)cc2)cs1 [Compound 203, (S)-1-(4-(2-ethyl-3-((4-(4-fluorophenyl)thiazol-2-yl)(methyl)amino)imidazo[1,2-a]pyridin-6-yl)piperazin-1-yl)-2-hydroxypropan-1-one] |  | 
7 |  | > 1000 | 0.01 to 100 | > 1000 | CCc1nc2ccc(N3CCOC3=O)cn2c1N(C)c1nc(-c2ccc(Cl)cc2)cs1 [Compound 206, 3-(3-((4-(4-chlorophenyl)thiazol-2-yl)(methyl)amino)-2-ethylimidazo[1,2-a]pyridin-6-yl)oxazolidin-2-one] |  | 
8 |  | > 1000 | 0.01 to 100 | > 1000 | CCc1nc2ccc(N3CCN(CCO)CC3)cn2c1N(C)c1nc(-c2ccc(Cl)cc2)cs1 [Compound 212, 2-(4-(3-((4-(4-chlorophenyl)thiazol-2-yl)(methyl)amino)-2-ethylimidazo[1,2-a]pyridin-6-yl)piperazin-1-yl)ethanol] |  | 
9 |  | > 1000 | 0.01 to 100 | > 1000 | CCc1nc2ccc(N3CCS(=O)(=O)CC3)cn2c1N(C)c1nc(-c2ccc(Cl)cc2)cs1 [Compound 213, 4-(2-ethyl-3-((4-(4-chlorophenyl)thiazol-2-yl)(methyl)amino)imidazo[1,2-a]pyridin-6-yl)-thiomorpholin-1,1-dioxide] |  | 
10 |  | > 1000 | 0.01 to 100 | > 1000 | CCc1nc2ccc(N3CCN(Cc4ncc[nH]4)CC3)cn2c1N(C)c1nc(-c2ccc(F)cc2)cs1 [Compound 226, N-(6-(4-((1H-imidazol-2-yl)methyl)piperazin-1-yl)-2-ethylimidazo[1,2-a]pyridin-3-yl)-4-(4-fluorophenyl)-N-methylthiazol-2-amine] |  | 
